Values of other authors as cited in patent publication EP4603080A1 (Adocia, priority 2024, dated 2025).

Details: read-out: EC50value; potency, WO2022129526 Assay 2, Tables 4b and 4c

EC50: ~0.011 nM
Substance: N-alpha-[(S)-4-Carboxy-4-(19-carboxynonadecanoylamino)butyryl]-[Glu14,Arg17,Pro37]-pramlintide [cagrilintide]
